The subject of data set [1] is Brucella suis.
Data set [2] concerns Brucella suis. The source holds these as a separate data set.
The subject of data set [3] is Helicobacter pylori. The data set is described as follows: Activity at Helicobacter pylori beta-carbonic anhydrase by spectrophotometry at pH 8.3.
Data set [4] deals with Brucella suis. The data set is described as follows: Ratio of kcat to Km for Brucella suis carbonic anhydrase I.
Data set [5] concerns Brucella suis. The data set is described as follows: Ratio of kcat to Km for Brucella suis carbonic anhydrase II.
In data set [6] the test system is Helicobacter pylori. The data set is described as follows: Ratio of kcat to Km for Helicobacter pylori beta-carbonic anhydrase.
The test system of data set [7] is O=C=O. Put plainly: Activity at human carbonic anhydrase II by spectrophotometry at pH 7.5.
For data set [8], the system named is O=C=O. The data set is described as follows: Ratio of kcat to Km for human carbonic anhydrase II.
The subject of data set [9] is O=C=O. The settings on record: Homo sapiens.
The subject of data set [10] is O=C=O. The data set is described as follows: Ratio of kcat to Km for human carbonic anhydrase I.

Carbonic anhydrase 1 (Homo sapiens), P00915, sequence (P00915 whole entry): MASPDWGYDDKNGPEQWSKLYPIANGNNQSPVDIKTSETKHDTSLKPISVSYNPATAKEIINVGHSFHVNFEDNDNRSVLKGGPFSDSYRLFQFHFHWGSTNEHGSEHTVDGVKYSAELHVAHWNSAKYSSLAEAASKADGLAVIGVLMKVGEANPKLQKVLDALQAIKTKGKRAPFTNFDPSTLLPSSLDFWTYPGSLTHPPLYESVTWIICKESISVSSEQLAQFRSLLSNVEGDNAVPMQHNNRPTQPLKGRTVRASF

As for `O=C=O`, the figures for the kcat with Brucella suis [1], with Brucella suis [2] and in the data set on Helicobacter pylori [3] were 6.4 ×10⁵ /s, 1.1 ×10⁶ /s and 7.1 ×10⁵ /s, respectively. Besides, the results for the kcat/Km with Brucella suis [4], in the data set with Brucella suis [5] and in the data set with Helicobacter pylori [6] were 3.9 ×10⁷ /M/s, 8.9 ×10⁷ /M/s and 4.8 ×10⁷ /M/s, respectively.

Take “Carbonic anhydrase 2 (Homo sapiens) (from UniProt P00918)”: the kcat in the data set on O=C=O [7] amounted to 1.4 ×10⁶ /s. The kcat/Km in the data set on O=C=O [8] turned out to be 1.5 ×10⁸ /M/s.

Turning to “Carbonic anhydrase 1 (Homo sapiens), P00915”, the kcat in the data set with O=C=O [9] came to 2 ×10⁵ /s. For the same molecule, the kcat/Km with O=C=O [10] stood at 5 ×10⁷ /M/s.

Source of the values: ChEMBL document CHEMBL1671790, “A new β-carbonic anhydrase from Brucella suis, its cloning, characterization, and inhibition with sulfonamides and sulfamates, leading to impaired pathogen growth” (Bioorg Med Chem, 2011).
